Consider one compound from PMC2680961, “Homologous desensitization of signalling by the alpha (α) isoform of the human thromboxane A2 receptor: A specific role for nitric oxide signalling” (Biochimica et Biophysica Acta, 2007).

What all share (format): cell-based
Test [1] has as its target T1, TPα^S340A (Homo sapiens, UniProt P21731, S340A).
T1 construct: expressed in transfected cells
T1 sequence (P21731 1-343 S340A): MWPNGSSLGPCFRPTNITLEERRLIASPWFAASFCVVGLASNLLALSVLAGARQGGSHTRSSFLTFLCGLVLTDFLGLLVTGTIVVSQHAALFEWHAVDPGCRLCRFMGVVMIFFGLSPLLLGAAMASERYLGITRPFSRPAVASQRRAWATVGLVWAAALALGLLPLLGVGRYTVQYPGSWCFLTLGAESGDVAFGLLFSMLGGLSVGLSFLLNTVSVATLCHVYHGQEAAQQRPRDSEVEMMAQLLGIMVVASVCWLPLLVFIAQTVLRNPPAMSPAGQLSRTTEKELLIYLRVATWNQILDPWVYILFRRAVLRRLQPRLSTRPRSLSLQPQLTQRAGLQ
In words: Intracellular calcium mobilization, HEK.TPα^S340A cells. The protocol: (§1) Measurement of intracellular calcium mobilization ([Ca^2+]i) in FURA2/AM preloaded HEK 293 cell lines (2 × 10^6 cells/dish), each transiently co-transfected with pADVA (10 μg), and pCMV:Gαq (25 μg), was carried out as previously described. To investigate the effect of GRK2/βARK1 on TP-mediated [Ca^2+]i mobilization, HEK.TPα or HEK.TPβ cells (2 × 10^6 cells/dish) were co-transfected with pADVA (10 μg), pCMV:Gαq (25 μg) along with pRK5:βARK1^495–689 (25 μg), encoding a dominant negative form of GRK2/βARK1[39]. […] For each measurement of [Ca^2+]i mobilization, aliquots of cells were diluted to 0.825 × 10^6 cells/ml in HBSSHB, 1 mM CaCl2 and FURA2 fluorescence was recorded (2 ml aliquots of cells) at 37^ °C with gentle stirring with a Perkin Elmer-Cetus LS50-B spectrofluorometer at excitation wavelengths of 340 nm and 380 nm and emission wavelength of 510 nm, respectively.
(§2) Cells were stimulated with the TP agonist U46619 (1 μM) and changes in [Ca^2+]i mobilization were monitored as a function of time. […]
(§3) The vehicle had no effect on U46619-mediated [Ca^2+]i mobilization. Calibration of the signal was performed in each sample by adding 0.2% Triton X-100 to obtain the maximal fluorescence ratio (Rmax) and then 1 mM EGTA to obtain the minimal fluorescence ratio (Rmin). […]
(In general: A change in cytosolic calcium serves as a functional read-out for many receptors and channels.)

Test [2] deals with T2, TPα^S331,340A (Homo sapiens, UniProt P21731, S331A/S340A).
T2 construct: expressed in transfected cells
In words: Intracellular calcium mobilization, HEK.TPα^S331,340A cells. The protocol:
as §1, §2, §3

Test [3] deals with T3, TPα^S331A (Homo sapiens, UniProt P21731, S331A).
T3 construct: expressed in transfected cells
T3 sequence (P21731 1-343 S331A): T1 sequence (P21731 1-343 S340A) with S331A, A340S
In words: Intracellular calcium mobilization, HEK.TPα^S331A cells. Conditions: for Δ[Ca2+]i, U46619-induced: HEK.TPα^S331A. The protocol: as §1, with “GRK2/βARK1[39]. Approximately 48 h post-transfection, cells were harvested by scraping, washed twice in ice-cold PBS and resuspended in HBSSHB (modified Ca^2+/Mg^2+-free Hank's buffered salt solution, containing […], pH 7.67, 0.1% bovine serum albumin (BSA)) buffer at 10^7 cells/ml and incubated in the dark with 5 μM FURA2/AM for 45 min at 37 °C.” for “GRK2/βARK1[39].”
Cells were stimulated with the TP agonist U46619 (1 μM) and changes in [Ca^2+]i mobilization were monitored as a function of time. To assess agonist-mediated homologous desensitization, cells (0.825 × 10^6 cells/ml; 2 ml per assay) were stimulated with 1 μM U46619 (Primary stimulation) or, as a control, with the vehicle for 4 min; thereafter, cells were collected by centrifugation (900×g, 5 min); were washed twice in 2 ml HBSSHB, 1 mM CaCl2; and finally resuspended in 2 ml HBSSHB,1 mM CaCl2 and were left to recover over various time intervals (ranging from 0 to 60 min); thereafter, cells re-stimulated with 1 μM U46619 (Secondary stimulation) and changes in [Ca^2+]i mobilization were monitored as a function of time. […]

Where [4] appears, read: secondary 1 μM U46619 at 15 min.

Molecules are shown by their SMILES. Where a chain is given by its changes, count along the chain named.

T2 sequence (P21731 whole entry S331A/S340A): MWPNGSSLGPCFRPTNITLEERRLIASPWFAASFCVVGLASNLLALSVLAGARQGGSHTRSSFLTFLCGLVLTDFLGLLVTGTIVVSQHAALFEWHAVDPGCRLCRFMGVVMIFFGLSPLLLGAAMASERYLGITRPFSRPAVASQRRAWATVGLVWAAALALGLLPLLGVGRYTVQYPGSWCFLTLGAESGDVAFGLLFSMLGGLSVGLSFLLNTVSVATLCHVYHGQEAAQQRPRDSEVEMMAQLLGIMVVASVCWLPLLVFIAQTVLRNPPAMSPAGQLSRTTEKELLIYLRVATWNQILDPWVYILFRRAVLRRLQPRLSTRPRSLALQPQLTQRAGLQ

`CCCCC[C@H](O)/C=C/[C@@H]1[C@@H](C/C=C\CCCC(=O)O)[C@H]2CO[C@@H]1C2` [U46619]: the “Δ[Ca2+]i, U46619-induced” value amounted to 180 ± 6.1 nM in test [1] (primary 1 μM U46619 4 min); 0 nM in test [1] (setting [4]); 160 ± 7.2 nM in test [2] (primary 1 μM U46619 4 min); 60 ± 10 nM in test [2] (setting [4]); 207 ± 9.1 nM in test [3] (primary 1 μM U46619 4 min); 80 ± 6.8 nM in test [3] (setting [4]). Further, the “secondary U46619 [Ca2+]i response relative to primary response” value in test [3] (TPα^S331A) stood at 39%.
